Data on 2 compounds can be found in US7194978B2, “Inducing sterility in fish by disrupting the development of the GnRH system” (University of Maryland Biotechnology Institute, priority 2003, dated 2007).

The structures appear in SMILES notation.

The test system of assay [1] is forebrain (TN) GnRH neurons. As to the kind of experiment: Developmental migration of GnRH neurons in zebrafish larvae, whole-mount ISH. It counts as in vivo, zebrafish (Danio rerio). As to conditions: sampled at 7, 9, 10, 12 days pf. The source says: Digoxigenin (DIG)-labeled complimentary RNA (cRNA) probe was synthesized from plasmid DNA, containing the seabream TN GnRH cDNA, using T7 RNA polymerase. The probe was hybridized to cellular TN GnRH mRNA in whole, fixed 3–22 days pf of larvae. The hybridized probe was then detected with anti-DIG antibody conjugated to alkaline phosphatase (Anti-DIG-AP), and the complex (mRNA:DIG-labeled cRNA:Anti-DIG-AP) was detected by an enzymatic reaction of AP with a chromogenic substrate, which forms a precipitating dark purple pigment. The procedure was performed according to a standard published protocol for whole-mount ISH (Westerfield et al., 1995). The age of the larvae are boxed on the top left of each photograph. TN GnRH-expressing cells are indicated by an arrow.
FIGS. 3A, B and C show the effect of GABA-ergic compounds on developmental migration of TN GnRH neurons in zebrafish. […] Note the extent of neuronal migration toward the brain seen in untreated fish, as compared to treated fish. Whole-mount ISH analysis was done as described in FIG. 1. Differential interference contrasting microscopy was used to visualize TN GnRH hybridization in deep tissue layers of the nasal placode. All panels at 200×.
Zebrafish. Zebrafish larvae 5–8 days post-fertilization (dpf) and 7–10 dpf were immersed in GABA (1 mM) or Muscimol (100 micromolar). […]

For another assay, the system named is zebrafish gonads. Put plainly: Gonadal development in zebrafish, histological analysis of the gonads at 9 weeks. Type of assay: in vivo, zebrafish (Danio rerio). To be noted: histology after 9 weeks of growth. As for the experimental part: FIGS. 4A. B and C show the effect of GABA-ergic compounds on gonadal development in zebrafish. Hematoxylineosin staining of gonadal tissues of 9-week old zebrafish exposed at 7–10 days pf to A) no treatment, B) 1 mM GABA and C) 100 μM Muscimol. Note greater degree of organization and more advanced gamete development in A), compared to B) and C). s: somatic cells; o: oogonia; v: oocytes in early stages of vitellogenesis; v*: vitellogenic oocytes with abnormal follicle development. A), C) at 200×; B) 400×.
Zebrafish. Zebrafish larvae 5–8 days post-fertilization (dpf) and 7–10 dpf were immersed in GABA (1 mM) or Muscimol (100 micromolar). Muscimol is a potent GABA agonist that acts specifically on GABAA receptor subtypes. Similar to the post-treatment assays conducted on seabream larvae, zebrafish tissue samples (n=12) were collected at 7, 9, 10, and 12 days pf and also after 9 weeks of growth for detection/analysis of GnRH neuron development and histological analysis of the gonads. […] Confirmation is made to determine the effectiveness of the treatment prior to sexual maturation (or lack thereof).
Zebrafish larvae were immersed in GABA (1 mM) or Muscimol (100 micromolar) at 5–8 days pf and 7–10 days pf. (Muscimol is a potent GABA agonist that acts specifically on GABAA receptor subtypes). Samples (n=12) were collected at 7, 9, 10, and 12 day pf for subsequent detection of GnRH neurons. […]

In the next assay the test system is sGnRH gene expression. As to the kind of experiment: sGnRH transcript levels in seabream larvae after GABA immersion, quantitative RT-PCR. To be noted: immersion in GABA 10^−7 to 10^−3 M for 18 hours, sampled 24 hours after treatment. It counts as in vivo, gilthead seabream (Sparus aurata). The protocol:
(§1) FIGS. 2A, B and C show the effect of GABA treatment on GnRH gene expression during development. Larvae were sampled 24 hours after overnight treatment at 3 days pf ( ? ), 1 week pf ( ? ) or 2 weeks pf ( ? ) and levels of GnRH transcript were measured by quantitative RT-PCR Values on the Y axis are expressed as copy number/20 ng total RNA. Values on the X axis range from 0 to 1 mM GABA. 100 ng total RNA was isolated from tissues using a modified acid-phenol extraction method (TRI REAGENT, MRC, Inc., Cincinnati, Ohio) and reverse transcribed into cDNA using random hexamers and MMLV reverse transcriptase. PCR was performed in 96-well plates on diluted cDNA templates using SYBR® Green PCR Core Reagent (PE Applied Biosystems, Foster City, Calif.) and the relevant GnRH primers. Primers were designed to span intron/exon boundaries in order to avoid amplification of genomic DNA. Amplification reactions were carried out using the ABI Prism® 7700 Sequence Detection System (PE Applied Biosystems), which consists of a built-in thermalcycler, laser irradiation and CCD detector system, and software analysis package. For each reaction, the Prism® 7700 generated an amplification plot of fluorescence signal versus cycle number, and CT (the fractional cycle number at which fluorescence passes a baseline threshold value) was determined (Fink et al., 1998). […] Quantitation of the amount of target in each sample was accomplished by comparing CT values of unknowns to standards to determine initial copy number. […]
(§2) Seabream. […] At 24 hours post-treatment, transcript levels for each of the 3 GnRHs in seabream were determined using real-time, fluorescence-based quantitative RT-PCR assays. […]
Seabream larvae at 3 days, 1 week and 2 weeks pf were immersed in various concentrations of GABA (10^−7 to 10^−3 M) for a period of 18 hours (200 larvae per treatment). Larvae were collected 24 hours after the treatments and transcript levels for each of the 3 GnRHs were determined using real-time, fluorescence-based quantitative RT-PCR assays.

The next assay relates to cGnRH-II expression. Put plainly: cGnRH-II transcript levels in seabream larvae after GABA immersion, quantitative RT-PCR. As to conditions: 2-week-old seabream larvae; immersion in GABA 10^−7 to 10^−3 M for 18 hours; sampled 24 hours after treatment. Type of assay: in vivo, gilthead seabream (Sparus aurata). The protocol:
as §1, with “Primers were designed to span intron/exon boundaries in order to avoid amplification of genomic DNA. Amplification reactions were carried out using the ABI Prism® 7700 Sequence Detection System (PE Applied Biosystems), which consists of a built-in thermalcycler, laser irradiation and CCD detector system, and software analysis package.” left out
as §2

In the next assay the test system is sbGnRH transcript levels. Put plainly: sbGnRH transcript levels in seabream larvae after GABA immersion, quantitative RT-PCR. It counts as in vivo, gilthead seabream (Sparus aurata). As to conditions: seabream larvae 3 days, 1 week, 2 weeks pf; immersion in GABA 10^−7 to 10^−3 M for 18 hours. As for the experimental part: as §1, with “Primers were designed to span intron/exon boundaries in order to avoid amplification of genomic DNA. Amplification reactions were carried out using the ABI Prism® 7700 Sequence Detection System (PE Applied Biosystems), which consists of a built-in thermalcycler, laser irradiation and CCD detector system, and software analysis package.” left out
as §2

Setting [2] is: zebrafish larvae immersed in 100 micromolar Muscimol at 5–8 dpf and 7–10 dpf.
Where [3] appears, read: zebrafish larvae immersed in 1 mM GABA at 5–8 dpf and 7–10 dpf.

For `NCc1cc(=O)[nH]o1` [Muscimol], in assay [1] (setting [2]), the “migration of the GnRH neurons” value is reported as “clearly inhibited”. Also, the gonadal development entry with zebrafish gonads (setting [2]) is listed as “clearly inhibited”.
In the case of `NCCCC(=O)O` [GABA, Gamma-aminobutyric acid], the sGnRH gene expression result is given as “dose-dependent decrease” with sGnRH gene expression (1-week-old seabream larvae), “no effect” with sGnRH gene expression (2-week-old seabream larvae) and “no effect” in the assay with sGnRH gene expression (3-day-old seabream larvae). Further, the cGnRH-II expression result with cGnRH-II expression is listed as “slight increase”. In the assay with sbGnRH transcript levels, the sbGnRH transcript levels result is on record as “no definitive effect seen”. In addition, in assay [1] (setting [3]), the “migration of the GnRH neurons” value was “clearly inhibited”. Moreover, in the assay with zebrafish gonads (setting [3]), the gonadal development entry is reported as “clearly inhibited”.
